Where two headings read alike, the source gives them in different places.
What was measured:
[1] = system: ACh-mediated persistent AF in isolated canine coronary-perfused right atria; assay: Acetylcholine (ACh)-mediated persistent AF model in coronary-perfused right atria; settings: ranolazine 5 μM, dronedarone 10 μM
Protocol: To assess the anti-AF potential of ranolazine, dronedarone, and their combination, we used an acetylcholine (ACh, 1.0 μM)-mediated AF model. In the presence of ACh, premature electrical stimulation (PES) or rapid pacing (CL=50-80 ms) induces persistent AF in 100% of canine coronary-perfused right atrial preparations.^9 The effect of the drugs was assessed to prevent (series 1) the induction of AF. In a separate set of preparations, the ability of these agents was evaluated to terminate (series 2) persistent AF. In the first series, ACh was added to the perfusate 20-30 min after the start of perfusion with 5 μM ranolazine, 10 μM dronedarone, or the combination of these agents. This was followed by attempts to induce the arrhythmia electrically. In the second series, the agents were added to the perfusate during ACh-mediated persistent AF (on the 5-6th minutes after the start of the arrhythmia). In cases in which the drug terminated AF, we attempted to re-induce the arrhythmia with rapid pacing.

[2] = system: rabbit isolated heart treated with acetylcholine; assay: Electrically-induced atrial fibrillation in rabbit isolated heart treated with acetylcholine
Protocol: Each rabbit was sedated using intramuscular injections of 6 mg/kg xylazine and 40 mg/kg ketamine and then anesthetized using a “cocktail” of ketamine (15 mg/kg)+xylazine (4 mg/kg) in 1.5 ml saline. The ketamine/xylazine cocktail was administered as an i.v. bolus via the marginal ear vein. After anesthesia was confirmed, the thorax was opened and the heart was quickly excised. The heart was placed in a modified Krebs-Henseleit (K-H) physiological saline solution at room temperature. The K-H solution contained (in mmol/L): NaCl 118, KCl 2.8, KH2PO4 1.2, CaCl2 2.5, MgSO4 0.5, pyruvate 2.0, glucose 5.5, Na2EDTA 0.57 and NaHCO3 25. The solution was continuously gassed with 95% O2 and 5% CO2, and its pH was adjusted to 7.4. The aorta was rapidly catheterized and the heart was perfused by the method of Langendorff with K-H solution warmed to 36-36.5° C. at a rate of 20 mL/min with a roller pump (Gilson Minipuls3, Middleton, Wis.). CPP was measured (with a Biopac MP 150 pressure transducer, Goleta, Calif.) from a side port of the aortic catheter. To facilitate exit of fluid from the chamber of the left ventricle (LV), the leaflets of the mitral valve were trimmed with fine spring-handled scissors. The right atrial wall was partially removed. […]

[3] = system: isolated canine coronary-perfused right atria; assay: Electrophysiology in isolated coronary-perfused canine right atrial preparations; settings: in presence of ACh 1 μM, ranolazine 5 μM, dronedarone 10 μM
Protocol: Experiments were performed using isolated coronary-perfused canine right atrial (RA) and left ventricular (LV) preparations (≈3×1.5×1 cm). Isolation and perfusion of the preparations were as previously described.^9, 15, 16 Briefly, preparations were dissected from hearts removed from anesthetized (sodium pentobarbital) adult mongrel dogs (20-30 kg). Unfolded RA with attached rim of the right ventricle was cannulated and perfused with cold cardioplegic solution (4-8° C.) through the ostium of the right coronary artery; the LV wedge was perfused through a diagonal branch of the left anterior descending coronary artery. Unperfused tissue was removed with a razor blade. Cut ventricular and atrial branches were ligated using silk thread. The preparations were then transferred to a temperature-controlled bath and arterially-perfused with Tyrode's solution by use of a roller pump. The composition of the Tyrode's solution was (in mM): NaCl 129, KCl 4, NaH2PO4 0.9, NaHCO3 20, CaCl2 1.8, MgSO4 0.5, and D-glucose 5.5, buffered with 95% O2 and 5% CO2 (37±0.5° C., pH=7.35)
Transmembrane action potential (AP) recordings were obtained using floating glass microelectrodes at a sampling rate of 40 kHz. A pseudo-electrocardiogram (ECG) was recorded using two electrodes consisting of Ag/AgCl half cells placed in the Tyrode's solution bathing the preparation, 1.0 to 1.5 cm from the two opposite sides of the atrial or ventricular coronary-perfused preparations. Conduction time was approximated by the duration of “P wave” in atria and “QRS complex” in ventricles, at a level representing 10% of “P wave” and “QRS” amplitude. Diastolic threshold of excitation (DTE) was determined by increasing stimulus intensity in 0.01 mA steps. Effective refractory period (ERP) was measured by delivering premature stimuli at progressively shorter S1-S2 intervals after every 10 basic beats at a pacing cycle length (CL) of 500 ms (5 ms steps; 2 times DTE). Post-repolarization refractoriness (PRR) was recognized when ERP exceeded action potential duration measured at 90% repolarization (APD90) in the ventricle and APD measured at 70% repolarization (APD70) in atria. Ventricular ERP was coincident with APD90, whereas atrial ERP was generally coincident with APD70-75.^9 The shortest S1-S1 permitting 1:1 activation was measured by progressively shortening pacing CL starting from a CL of 500 ms.
Stable AP recordings could not be readily obtained in the vigorously contracting perfused preparations. The largest recorded maximum rate of rise of the AP upstroke (Vmax) values per experimental condition were taken for statistical comparison. Only APs having amplitudes of at least 100 mV were considered in the analysis. The largest Vmax criterion was used because this was associated with the largest amplitude and the most negative resting membrane potential, depicting full or near full impalement. In determining use-dependent depression of Vmax, values were normalized to the Vmax value at a CL of 500 ms for each experiment and then averaged.
Because of their dependence on peak INa, Vmax, DTE, PRR, and conduction time as well the shortest S1-S1 interval permitting 1:1 activation are referred to as INa-dependent parameters.
The equilibration period for the coronary-perfused preparations was 30-120 min. The preparations were exposed to 5 μM ranolazine, 10 μM dronedarone (after 30 min washout of ranolazine), and the combination of these agents for at a period of at least 20 min. In time-control experiments, 20 minutes was sufficient to achieve steady-state in the effects of each of the drugs to alter electrophysiologic parameters. Recordings were obtained at a cycle length (CL) of 500 and 300 ms, unless otherwise indicated. […] When determining the shortest S1-S1 pacing rate permitting 1:1 activation, the stimulation intensity was DTE x 2, determined at a CL of 500 ms.

[4] = system: female rabbit isolated heart treated with E-4031; assay: Torsades de pointes in rabbit isolated heart treated with E-4031; settings: E-4031 60 nM
Protocol: Each rabbit was sedated using intramuscular injections of 6 mg/kg xylazine and 40 mg/kg ketamine and then anesthetized using a “cocktail” of ketamine (15 mg/kg)+xylazine (4 mg/kg) in 1.5 ml saline. The ketamine/xylazine cocktail was administered as an i.v. bolus via the marginal ear vein. After anesthesia was confirmed, the thorax was opened and the heart was quickly excised. The heart was placed in a modified Krebs-Henseleit (K-H) physiological saline solution at room temperature. […] CPP was measured (with a Biopac MP 150 pressure transducer, Goleta, Calif.) from a side port of the aortic catheter. To facilitate exit of fluid from the chamber of the left ventricle (LV), the leaflets of the mitral valve were trimmed with fine spring-handled scissors. The right atrial wall was partially removed.
Complete AV block was induced by thermo-ablation of the AV nodal area. […] A bipolar Teflon-coated electrode was placed on the right ventricular septum to pace the heart. Electrical stimuli 3 ms in width and 3-fold threshold amplitude were delivered to the pacing electrode at a frequency of 1 Hz throughout the experiments using a Grass S48 stimulator (W. Warwick, R.I.).
After initiation of ventricular pacing, a 30-40 min equilibration delay was allowed for heart rate (and CPP) to achieve a steady state, an essential experimental condition for recording a good quality monophasic action potential (MAP) recording.
Monophasic action potential (MAP) and ECG electrodes from Harvard Apparatus Inc. (Holliston, Mass.) were used to record heart rate (in beats per minute, or bpm), left ventricular MAPs and a bipolar ECG MAP electrodes were pressure contact Ag—AgCl cells attached to a circular holder with springs to keep the electrodes in contact with the LV epicardial surface. Two MAP electrodes were placed on the epicardial ventricular free wall below the level of the atrial-ventricular valves, one at the base to record a basal MAP and one at the apex to record an apical MAP. […] Signals were saved on a computer hard disk for subsequent analysis. Bipolar electrocardiograms (ECG) were generated using an isolated-heart ECG apparatus (Harvard Apparatus, Holliston, Mass.) attached to Biopac amplifier system.

[5] = cited from earlier work
[6] = system: patients with AF; settings: DIONYSOS trial, 6 months of follow-up; cited from earlier work
[7] = system: spontaneous (intrinsic) atrial rate in guinea pig isolated hearts; assay: Spontaneous atrial rate in guinea pig isolated hearts; settings: verapamil 10 μM; from 225±3
Text: To perfuse the heart by the Langendorff method, the transected aorta was slid onto a glass cannula and secured by a ligature. […] To facilitate the exit of fluid from the left ventricle, the leaflets of the mitral valve were trimmed with fine spring-handled scissors. […] Experimental interventions were always preceded and followed by control measurements.

[8] = ACh 1 μM-mediated persistent AF

CC(=O)OCC[N+](C)(C)C [ACh, Acetylcholine]
Termination Persistent AF [1, 8]: 0% | Termination Persistent AF (atria terminated/atria tested) [1, 8]: 0/10 | Induction of Persistent AF ([1]; in presence of ACh 1 μM): 100% | Inducibility of AF ([2]; S1S2 protocol, acetylcholine 0.6-1 μM, ranolazine 6 μM in presence of 0.3 μM dronedarone): 100% | Shortest S1-S1 (shortest CL permitting 1:1 activation) ([3]; in ms (unit assumed)): 56 ± 7 | APD90 ([3]; pectinate muscle, CL of 500 ms): 41 ± 6 ms | ERP ([3]; pectinate muscle, CL of 500 ms): 52 ± 9 ms

Cc1cccc(CCN2CCC(C(=O)c3ccc(NS(C)(=O)=O)cc3)CC2)n1 [E-4031, N-[4-[[1-[2-(6-Methyl-2-pyridinyl)ethyl]-4-piperidinyl]carbonyl]phenyl]methanesulfonamide]
Occurrences of torsades de pointes (TdP) (hearts) ([4]; dronedarone 10 μM): 4/6 | TdP (FIG. 18) ([4]; dronedarone 0.1-0.3 μM): induced spontaneous and 3-sec pause-triggered episodes of TdP | Incidence of TdP and EADs ([4]; dronedarone 0.3-10 μM, ranolazine 6 and 10 μM): markedly increased the incidence of torsades de pointes

O=C(NCC1CCCCN1)c1cc(OCC(F)(F)F)ccc1OCC(F)(F)F (stereo not shown) [Flecainide]
Abolition of inducible AF (hearts) ([2]; in presence of ACh, dronedarone 0.3 μM alone, flecainide positive control): abolished all episodes of AF

CCCCc1oc2ccccc2c1C(=O)c1cc(I)c(OCCN(CC)CC)c(I)c1 [amiodarone]
Patients who discontinue use due to intolerant side effects ([5]; after one year): 8-18% | Extracardiac complications ([5]; first year of treatment): up to 15% | Extracardiac complications ([5]; longer term treatment): up to 50% | Rate of recurrence of AF [6]: 42%

COc1ccc(CCN(C)CCCC(C#N)(c2ccc(OC)c(OC)c2)C(C)C)cc1OC (stereo not shown) [verapamil]
Spontaneous atrial rate [7]: 25±24 beats/min
